Experimental findings from publication PMC8745369, “Discovery of 2,4-thiazolidinedione-tethered coumarins as novel selective inhibitors for carbonic anhydrase IX and XII isoforms” (Journal of Enzyme Inhibition and Medicinal Chemistry, 2022) are described below.

One data set addresses hCA II (Homo sapiens, UniProt P00918). The data set can be described thus: Stopped flow CO2 hydrase assay, hCA II inhibition. It counts as biochemical. The note with it: stopped flow technique; incubation time of 6 h; mean from 3 different assays; read-out: KI CA II.
For the next data set, the target named is hCA XII (Homo sapiens, UniProt O43570). Description: Stopped flow CO2 hydrase assay, hCA XII inhibition. It counts as biochemical. The note with it: for Ki: stopped flow technique, incubation time of 6 h, mean from 3 different assays, read-out: KI CA XII.
Another data set has as its target hCA IX (Homo sapiens, UniProt Q16790). The data set can be described thus: Stopped flow CO2 hydrase assay, hCA IX inhibition. The following applies: stopped flow technique; incubation time of 6 h; mean from 3 different assays; read-out: KI CA IX. It counts as biochemical.
For another data set, the target named is hCA I (Homo sapiens, UniProt P00915). Description: Stopped flow CO2 hydrase assay, hCA I inhibition. It counts as biochemical. The following applies: stopped flow technique; incubation time of 6 h; mean from 3 different assays; read-out: KI CA I.
The test system of data set [1] is MCF-7 breast cancer cell line. Description: MTT antiproliferative assay under hypoxic conditions. It counts as cell-based. The following applies: Homo sapiens, MCF7, hypoxic conditions (CoCl2), 48 h exposure, mean ± SD of three experiments. The procedure:
2. Anti-proliferative action toward human breast cell line
The examined human breast cancer cell line (MCF-7) has been obtained from American Type Culture Collection (ATCC). Cells line was maintained as monolayers in Dulbecco’s Modified Eagle’s Medium (DMEM) supplemented with 10% FBS, 2 mM L-glutamine, 100 U/ml penicillin and 100µg/ml streptomycin sulfate. Cobalt (II) chloride (CoCl2) was utilized as an inducer of HIF-1α to furnish a chemically-induced hypoxia. Cells were sub-cultured with trypsine /EDTA solution, counted with haemocytometer and plated onto 96-well plates (5000 cells/well) and left overnight to form a semi-confluent monolayer. Cell monolayers were treated in quadrates with […]
for an exposure time of 48 h. At the end of exposure, MTT solution in PBS (5 mg/ml) was then added to all well including no cell blank and left to incubate for 90 min. The formation of formazan crystals were visually confirmed using phase contract microscopy. DMSO (100 µl/well) was added to dissolve the formazan crystals with shaking for 10 min after which the absorbance was read at […]

Chain of hCA XII (O43570 25-354): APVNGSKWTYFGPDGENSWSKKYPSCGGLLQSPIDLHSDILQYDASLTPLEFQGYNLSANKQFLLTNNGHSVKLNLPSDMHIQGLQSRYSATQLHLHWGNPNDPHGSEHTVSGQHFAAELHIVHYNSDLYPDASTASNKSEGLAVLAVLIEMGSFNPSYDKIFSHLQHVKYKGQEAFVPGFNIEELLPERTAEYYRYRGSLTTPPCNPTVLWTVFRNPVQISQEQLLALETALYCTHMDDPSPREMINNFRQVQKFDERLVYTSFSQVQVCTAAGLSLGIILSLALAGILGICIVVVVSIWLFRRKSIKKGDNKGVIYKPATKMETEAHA
Chain of hCA I (P00915 whole entry): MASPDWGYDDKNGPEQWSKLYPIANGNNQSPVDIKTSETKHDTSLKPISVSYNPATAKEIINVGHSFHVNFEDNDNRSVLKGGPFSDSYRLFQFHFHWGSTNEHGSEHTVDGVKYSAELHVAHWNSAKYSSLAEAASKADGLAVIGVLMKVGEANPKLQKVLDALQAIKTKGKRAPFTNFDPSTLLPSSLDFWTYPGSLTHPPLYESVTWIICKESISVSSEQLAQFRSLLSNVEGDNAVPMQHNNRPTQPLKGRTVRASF

As a reminder, the Ki is the dissociation constant of the complex between target and ligand, obtained from inhibition or displacement. As to `O=C(CN1C(=O)CSC1=O)c1cc2ccccc2oc1=O` [5a, 3–(2-Oxo-2–(2-oxo-2H-chromen-3-yl)ethyl)thiazolidine-2,4-dione], the Ki at hCA II is over 100 µM; at hCA XII it was 0.15 µM; at hCA IX, 0.12 µM; at hCA I it was over 100 µM.

The melting point is the temperature of the solid-liquid transition. Compound `O=C(CN1C(=O)CSC1=O)c1cc2cc(Br)ccc2oc1=O` [5b, 3–(2-(6-Bromo-2-oxo-2H-chromen-3-yl)-2-oxoethyl)thiazolidine-2,4-dione] had a melting point of 239 to 241 °C. For the same compound, the inhibition constant Ki on hCA II is over 100 µM. The “diminished inhibition for hCA XII relative to the unsubstituted analogue 5a” value at hCA XII (ratio of KI values) is reported as 2 fold. Moreover, the Ki on hCA XII worked out at 0.31 µM. The Ki on hCA IX turned out to be 0.24 µM. Further, the Ki at hCA I is over 100 µM.

The term IC50 denotes the concentration that inhibits the measured activity by half. Low values mean greater potency, high ones weaker potency. `O=C(CN1C(=O)SC(=Cc2ccccc2)C1=O)c1cc2ccccc2oc1=O` [10a, 5-Benzylidene-3–(2-oxo-2–(2-oxo-2H-chromen-3-yl)ethyl)thiazolidine-2,4-dione] registered a melting point of 249 to 251 °C. Also, in data set [1], 3.13 ± 0.18 µM corresponded to half-maximal inhibition (IC50). Also, the Ki on hCA II was over 100 µM. Besides, the inhibition constant Ki at hCA XII amounted to 0.75 µM. Further, on hCA IX, the inhibition constant Ki was determined as 0.82 µM. At hCA I, the Ki is over 100 µM.

The compound `Cc1ccc(C=C2SC(=O)N(CC(=O)c3cc4ccccc4oc3=O)C2=O)cc1` [10b, 5–(4-Methylbenzylidene)-3–(2-oxo-2–(2-oxo-2H-chromen-3-yl)ethyl)thiazolidine-2,4-dione] returned a melting point of 227 to 229 °C. Besides, the Ki on hCA II was over 100 µM. Moreover, the Ki on hCA XII is 4 µM. Besides, the inhibition constant Ki at hCA IX came out at 4.3 µM. For the same compound, on hCA I, the inhibition constant Ki is over 100 µM.

`COc1ccc(C=C2SC(=O)N(CC(=O)c3cc4ccccc4oc3=O)C2=O)cc1` [10c, 5–(4-Methoxybenzylidene)-3–(2-oxo-2–(2-oxo-2H-chromen-3-yl)ethyl)thiazolidine-2,4-dione] came in with a melting point of 257 to 259 °C. Further, the inhibition constant Ki on hCA II is over 100 µM. Moreover, the inhibitory constant (Ki) on hCA XII was found to be 4.5 µM. Moreover, the Ki on hCA IX was 5.8 µM. Also, the Ki at hCA I was over 100 µM.

On to `COc1ccc(OC)c(C=C2SC(=O)N(CC(=O)c3cc4ccccc4oc3=O)C2=O)c1` [10d, 5–(2,5-Dimethoxybenzylidene)-3–(2-oxo-2–(2-oxo-2H-chromen-3-yl)ethyl)thiazolidine-2,4-dione], for which the melting point fell in the range of 238 to 240 °C. For the same compound, on hCA II, the inhibitory constant (Ki) is over 100 µM. Also, the Ki on hCA XII came out at 6.2 µM. Besides, the inhibitory constant (Ki) on hCA IX was 8.4 µM. Moreover, on hCA I, the Ki was over 100 µM.

For the compound `O=C(CN1C(=O)SC(=Cc2ccc([N+](=O)[O-])cc2)C1=O)c1cc2ccccc2oc1=O` [10e, 5–(4-Nitrobenzylidene)-3–(2-oxo-2–(2-oxo-2H-chromen-3-yl)ethyl)thiazolidine-2,4-dione], the melting point lay in the range of 263 to 265 °C. Further, the inhibition constant Ki on hCA II is over 100 µM. Also, the Ki at hCA XII was 8 µM. In addition, at hCA IX, the Ki is 12.3 µM. For the same compound, on hCA I, the Ki is over 100 µM.

`O=C(CN1C(=O)SC(=Cc2ccccc2Cl)C1=O)c1cc2ccccc2oc1=O` [10f, 5–(2-Chlorobenzylidene)-3–(2-oxo-2–(2-oxo-2H-chromen-3-yl)ethyl)thiazolidine-2,4-dione] displayed a melting point of 208 to 211 °C. Moreover, the inhibitory constant (Ki) at hCA II is over 100 µM. In addition, at hCA XII, the Ki amounted to 3.8 µM. Further, the inhibition constant Ki at hCA IX turned out to be 2.2 µM. Also, on hCA I, the Ki is over 100 µM.

`O=C(CN1C(=O)SC(=Cc2ccccc2Br)C1=O)c1cc2ccccc2oc1=O` [10g, 5–(2-Bromobenzylidene)-3–(2-oxo-2–(2-oxo-2H-chromen-3-yl)ethyl)thiazolidine-2,4-dione]: the melting point lay within 230 to 232 °C. For the same compound, on hCA II, the Ki is over 100 µM. Also, the Ki at hCA XII stood at 4.1 µM. For the same compound, on hCA IX, the Ki came out at 2.3 µM. Also, the Ki on hCA I was over 100 µM.

The compound `O=C(CN1C(=O)SC(=Cc2ccccc2)C1=O)c1cc2cc(Br)ccc2oc1=O` [10h, 5-Benzylidene-3–(2-(6-bromo-2-oxo-2H-chromen-3-yl)-2-oxoethyl)thiazolidine-2,4-dione] registered a melting point of 252 to 254 °C. This compound returned an IC50 in data set [1] of 11.1 ± 0.65 µM. The Ki on hCA II was over 100 µM. Besides, the inhibition constant Ki on hCA XII was determined as 0.87 µM. Besides, the Ki on hCA IX came out at 0.93 µM. For the same compound, the Ki on hCA I is over 100 µM.

`Cc1ccc(C=C2SC(=O)N(CC(=O)c3cc4cc(Br)ccc4oc3=O)C2=O)cc1` [10i, 3–(2-(6-Bromo-2-oxo-2H-chromen-3-yl)-2-oxoethyl)-5–(4-methylbenzylidene)thiazolidine-2,4-dione] displayed a melting point of 224 to 225 °C. Also, at hCA II, the Ki is over 100 µM. The Ki at hCA XII stood at 2.3 µM. Besides, the Ki on hCA IX amounted to 6.2 µM. On hCA I, the Ki is over 100 µM.

Turning to `COc1ccc(C=C2SC(=O)N(CC(=O)c3cc4cc(Br)ccc4oc3=O)C2=O)cc1` [10j, 3–(2-(6-Bromo-2-oxo-2H-chromen-3-yl)-2-oxoethyl)-5–(4-methoxybenzylidene)thiazolidine-2,4-dione], the melting point fell in the range of 245 to 247 °C. In addition, the Ki at hCA II was over 100 µM. In addition, the Ki on hCA XII turned out to be 4.9 µM. For the same compound, the inhibitory constant (Ki) on hCA IX is 8.9 µM. Besides, the Ki at hCA I was over 100 µM.

Turning to `COc1ccc(OC)c(C=C2SC(=O)N(CC(=O)c3cc4cc(Br)ccc4oc3=O)C2=O)c1` [10k, 3–(2-(6-Bromo-2-oxo-2H-chromen-3-yl)-2-oxoethyl)-5–(2,5-dimethoxybenzylidene) thiazolidine-2,4-dione], the melting point lay in the range of 204 to 206 °C. For the same compound, on hCA II, the Ki is over 100 µM. In addition, the Ki at hCA XII turned out to be 6.6 µM. In addition, the Ki on hCA IX stood at 16.4 µM. At hCA I, the Ki is over 100 µM.

The compound `O=C(CN1C(=O)SC(=Cc2ccc([N+](=O)[O-])cc2)C1=O)c1cc2cc(Br)ccc2oc1=O` [10l, 3–(2-(6-Bromo-2-oxo-2H-chromen-3-yl)-2-oxoethyl)-5–(4-nitrobenzylidene)thiazolidine-2,4-dione] gave a melting point of 229 to 231 °C. Moreover, the inhibitory constant (Ki) at hCA II is over 100 µM. Further, on hCA XII, the inhibition constant Ki worked out at 10.4 µM. The inhibition constant (Ki) on hCA IX amounted to 18.2 µM. In addition, the Ki at hCA I was over 100 µM.

`O=C(CN1C(=O)SC(=Cc2ccccc2Cl)C1=O)c1cc2cc(Br)ccc2oc1=O` [10m, 3–(2-(6-Bromo-2-oxo-2H-chromen-3-yl)-2-oxoethyl)-5–(2-chlorobenzylidene)thiazolidine-2,4-dione] displayed a melting point of 192 to 194 °C. Further, at hCA II, the inhibition constant (Ki) is over 100 µM. Moreover, the inhibitory constant (Ki) on hCA XII came out at 3.2 µM. Besides, at hCA IX, the inhibition constant Ki was 2.9 µM. Also, the Ki on hCA I was over 100 µM.

For the compound `O=C(CN1C(=O)SC(=Cc2ccccc2Br)C1=O)c1cc2cc(Br)ccc2oc1=O` [10n, 3–(2-(6-Bromo-2-oxo-2H-chromen-3-yl)-2-oxoethyl)-5–(2-bromobenzylidene)thiazolidine-2,4-dione], the melting point lay in the range of 208 to 210 °C. In addition, at hCA II, the inhibition constant (Ki) was over 100 µM. In addition, the inhibition constant Ki at hCA XII stood at 2.8 µM. At hCA IX, the Ki came to 3.4 µM. Also, the inhibition constant (Ki) at hCA I is over 100 µM.

On to `Cc1ccc(C=C2SC(=O)N(CC(=O)c3cc4ccccc4oc3=O)C2=O)o1` [11b, 5-((5-Methylfuran-2-yl)methylene)-3–(2-oxo-2–(2-oxo-2H-chromen-3-yl)ethyl)thiazolidine-2,4-dione], for which the melting point lay in the range of 227 to 229 °C. Further, the half-maximal inhibitory concentration (IC50) in data set [1] is 4.14 ± 0.24 µM. For the same compound, the inhibition constant Ki at hCA II was over 100 µM. Further, the inhibitory constant (Ki) at hCA XII stood at 1.1 µM. For the same compound, the Ki on hCA IX was determined as 0.79 µM. Besides, on hCA I, the inhibition constant (Ki) was over 100 µM.

`O=C(CN1C(=O)SC(=Cc2cccs2)C1=O)c1cc2cc(Br)ccc2oc1=O` [11c, 3–(2-(6-Bromo-2-oxo-2H-chromen-3-yl)-2-oxoethyl)-5-(thiophen-2-ylmethylene)thiazolidine-2,4-dione] yielded a melting point of 255 to 257 °C. The same compound returned an IC50 in data set [1] of 9.56 ± 0.56 µM. For the same compound, the Ki on hCA II was over 100 µM. Besides, at hCA XII, the Ki turned out to be 0.44 µM. Also, on hCA IX, the inhibition constant Ki came out at 0.59 µM. Further, the Ki at hCA I was over 100 µM.

Regarding `Cc1ccc(C=C2SC(=O)N(CC(=O)c3cc4cc(Br)ccc4oc3=O)C2=O)o1` [11d, 3–(2-(6-Bromo-2-oxo-2H-chromen-3-yl)-2-oxoethyl)-5-((5-methylfuran-2-yl)methylene)thiazolidine-2,4-dione], the melting point is 236 to 238 °C. For the same compound, the half-inhibitory concentration (IC50) in data set [1] stood at 1.65 ± 0.1 µM. Moreover, the inhibitory constant (Ki) at hCA II is over 100 µM. Further, the inhibitory constant (Ki) at hCA XII worked out at 0.82 µM. Further, the Ki at hCA IX turned out to be 0.91 µM. Further, the Ki on hCA I was over 100 µM.
